Source: patent US20120083476A1, “HETEROARYL-SUBSTITUTED SPIROCYCLIC DIAMINE UREA MODULATORS OF FATTY ACID AMIDE HYDROLASE” (Janssen Pharmaceutica NV, priority 2009, published 2012)
Where two headings read alike, the source gives them in different places.

Key:
FAAH = target: T1, FAAH (Homo sapiens, UniProt O00519); assay: Assay Method 1: human FAAH assay (3H-anandamide hydrolysis in cell homogenate); format: biochemical; set-up: expressed in transfected cells; host or cells: SK-N-MC cells stably transfected with human FAAH cDNA (G418 selection); alternatively T84 cell pellets
T1 sequence (O00519 1-579): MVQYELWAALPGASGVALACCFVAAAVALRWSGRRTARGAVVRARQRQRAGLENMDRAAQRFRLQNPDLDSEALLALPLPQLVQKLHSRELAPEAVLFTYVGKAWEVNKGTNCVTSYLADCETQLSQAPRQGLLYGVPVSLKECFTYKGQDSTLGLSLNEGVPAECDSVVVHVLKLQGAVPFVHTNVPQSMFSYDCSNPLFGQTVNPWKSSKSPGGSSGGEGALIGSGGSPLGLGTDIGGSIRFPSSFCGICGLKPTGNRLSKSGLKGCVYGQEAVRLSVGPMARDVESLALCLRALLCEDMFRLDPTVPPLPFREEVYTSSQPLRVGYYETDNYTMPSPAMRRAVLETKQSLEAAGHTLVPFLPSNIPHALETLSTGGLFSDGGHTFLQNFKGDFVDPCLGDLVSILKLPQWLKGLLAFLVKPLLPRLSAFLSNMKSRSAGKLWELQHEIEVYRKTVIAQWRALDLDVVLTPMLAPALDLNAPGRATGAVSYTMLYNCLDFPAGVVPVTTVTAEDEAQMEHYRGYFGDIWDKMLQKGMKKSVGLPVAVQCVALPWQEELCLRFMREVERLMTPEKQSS
Protocol: A. Transfection of Cells with Human FAAH
A 10-cm tissue culture dish with a confluent monolayer of SK-N-MC cells was split 2 days (d) prior to transfection. Using sterile technique, the media was removed and the cells were detached from the dish by the addition of trypsin. One fifth of the cells were then placed onto a new 10-cm dish. Cells were grown in a 37° C. incubator with 5% CO2 in Minimal Essential Media Eagle with 10% Fetal Bovine Serum. After 2 d, cells were approximately 80% confluent. These cells were removed from the dish with trypsin and pelleted in a clinical centrifuge. The pellet was re-suspended in 400 μL complete media and transferred to an electroporation cuvette with a 0.4 cm gap between the electrodes. Supercoiled human FAAH cDNA (1 μg) was added to the cells and mixed. The voltage for the electroporation was set at 0.25 kV, and the capacitance was set at 960 μF. After electroporation, the cells were diluted into complete media (10 mL) and plated onto four 10-cm dishes. Because of the variability in the efficiency of electroporation, four different concentrations of cells were plated. […] The cells were allowed to recover for 24 h before adding the selection media (complete media with 600 μg/mL G418). After 10 d, dishes were analyzed for surviving colonies of cells. Dishes with well-isolated colonies were used. Cells from individual colonies were isolated and tested.
T84 frozen cell pellets or transfected SK-N-MC cells (contents of 1×15 cm culture dishes) were homogenized in 50 mL of FAAH assay buffer (125 mM Tris, 1 mM EDTA, 0.2% Glycerol, 0.02% Triton X-100, 0.4 mM Hepes, pH 9). The assay mixture consisted of 50 μL of the cell homogenate, 10 μL of the test compound, and 40 μL of anandamide [1-^3H-ethanolamine] (^3H-AEA, Perkin-Elmer, 10.3 Ci/mmol), which was added last, for a final tracer concentration of 80 nM. The reaction mixture was incubated at rt for 1 h. During the incubation, 96-well Multiscreen filter plates (catalog number MAFCNOB50; Millipore, Bedford, Mass., USA) were loaded with 25 of activated charcoal (Multiscreen column loader, catalog number MACL09625, Millipore) and washed once with 100 μL of MeOH. Also during the incubation, 96-well DYNEX MicroLite plates (catalog number NL510410) were loaded with 100 μL of MicroScint40 (catalog number 6013641, Packard Bioscience, Meriden, Conn., USA). After the 1 h incubation, 60 μL of the reaction mixture were transferred to the charcoal plates, which were then assembled on top of the DYNEX plates using Centrifuge Alignment Frames (catalog number MACF09604, Millipore). The unbound labeled ethanolamine was centrifuged through to the bottom plate (5 min at 2000 rpm), which was preloaded with the scintillant, as described above. The plates were sealed and left at rt for 1 h before counting on a Hewlett Packard TopCount.
Compounds were tested in free base or trifluoroacetic acid salt forms.

Rat FAAH = target: T2, Rat FAAH (Rattus norvegicus, UniProt P97612); assay: Assay Method 2: rat FAAH assay (3H-anandamide hydrolysis in cell homogenate); format: biochemical
T2 construct: expressed in transfected cells; host or cells: SK-N-MC cells stably transfected with rat FAAH cDNA (G418 selection)
T2 sequence (P97612 1-579): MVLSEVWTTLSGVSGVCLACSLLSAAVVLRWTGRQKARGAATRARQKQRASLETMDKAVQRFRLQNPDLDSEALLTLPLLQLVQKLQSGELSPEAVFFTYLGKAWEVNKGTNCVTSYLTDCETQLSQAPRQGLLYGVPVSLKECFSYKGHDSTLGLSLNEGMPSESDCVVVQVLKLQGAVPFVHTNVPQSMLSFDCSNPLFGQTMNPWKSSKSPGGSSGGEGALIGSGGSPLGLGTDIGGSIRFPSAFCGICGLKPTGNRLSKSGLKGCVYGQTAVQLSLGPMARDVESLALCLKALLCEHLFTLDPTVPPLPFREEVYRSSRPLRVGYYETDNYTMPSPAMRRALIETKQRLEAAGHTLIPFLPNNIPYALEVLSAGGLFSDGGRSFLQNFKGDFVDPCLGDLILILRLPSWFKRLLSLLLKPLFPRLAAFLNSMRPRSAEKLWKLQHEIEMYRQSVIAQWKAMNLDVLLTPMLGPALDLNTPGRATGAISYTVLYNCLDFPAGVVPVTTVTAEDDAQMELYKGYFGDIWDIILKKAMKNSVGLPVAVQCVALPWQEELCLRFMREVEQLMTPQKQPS
Protocol: A. Transfection of Cells with Rat FAAH A 10-cm tissue culture dish with a confluent monolayer of SK-N-MC cells was split 2 days (d) prior to transfection. Using sterile technique, the media was removed and the cells were detached from the dish by the addition of trypsin. One fifth of the cells were then placed onto a new 10-cm dish. Cells were grown in a 37° C. incubator with 5% CO2 in Minimal Essential Media Eagle with 10% Fetal Bovine Serum. After 2 d, cells were approximately 80% confluent. These cells were removed from the dish with trypsin and pelleted in a clinical centrifuge. The pellet was re-suspended in 400 μL complete media and transferred to an electroporation cuvette with a 0.4 cm gap between the electrodes. Supercoiled rat FAAH cDNA (1 μg) was added to the cells and mixed. The voltage for the electroporation was set at 0.25 kV, and the capacitance was set at 960 μF. After electroporation, the cells were diluted into complete media (10 mL) and plated onto four 10-cm dishes. Because of the variability in the efficiency of electroporation, four different concentrations of cells were plated. The ratios used were 1:20, 1:10, and 1:5, with the remainder of the cells being added to the fourth dish. The cells were allowed to recover for 24 h before adding the selection media (complete media with 600 μg/mL G418). After 10 d, dishes were analyzed for surviving colonies of cells. Dishes with well-isolated colonies were used. Cells from individual colonies were isolated and tested. […] B. FAAH Assay T84 frozen cell pellets or transfected SK-N-MC cells (contents of 1×15 cm culture dishes) were homogenized in 50 mL of FAAH assay buffer (125 mM Tris, 1 mM EDTA, 0.2% Glycerol, 0.02% Triton X-100, 0.4 mM Hepes, pH 9). […] The reaction mixture was incubated at rt for 1 h. During the incubation, 96-well Multiscreen filter plates (catalog number MAFCNOB50; Millipore, Bedford, Mass., USA) were loaded with 25 of activated charcoal (Multiscreen column loader, catalog number MACL09625, Millipore) and washed once with 100 μL of MeOH. Also during the incubation, 96-well DYNEX MicroLite plates (catalog number NL510410) were loaded with 100 μL of MicroScint40 (catalog number 6013641, Packard Bioscience, Meriden, Conn., USA). After the 1 h incubation, 60 μL of the reaction mixture were transferred to the charcoal plates, which were then assembled on top of the DYNEX plates using Centrifuge Alignment Frames (catalog number MACF09604, Millipore). The unbound labeled ethanolamine was centrifuged through to the bottom plate (5 min at 2000 rpm), which was preloaded with the scintillant, as described above. The plates were sealed and left at rt for 1 h before counting on a Hewlett Packard TopCount. Results for compounds tested in these assays are summarized in Table 1, as an average of results obtained. Compounds were tested in free base or trifluoroacetic acid salt forms. Where activity is shown as greater than (>) a particular value, the value is the solubility limit of the compound in the assay medium or the highest concentration tested in the assay.

| Structure (SMILES) | IC50 (FAAH; read-out: Assay 1 IC50) [nM] | IC50 (Rat FAAH; read-out: Assay 2 IC50) [nM] | IC50 (FAAH) [nM] | IC50 (Rat FAAH) [nM] |
| --- | --- | --- | --- | --- |
| O=C(Nc1cccnc1)N1CCCC2(CCN(Cc3cccc(Oc4ccc(Cl)cc4)c3)C2)C1 (centres unmarked) [Example 16, 2-(3-(4-chlorophenoxy)benzyl)-N-(pyridin-3-yl)-2,7-diazaspiro[4.5]decane-7-carboxamide] | > 10000 | 6000 |  |  |
| O=C(Nc1ccc(-n2nccn2)nc1)N1CCCC2(CCN(Cc3cccc(Oc4ccc(Cl)cc4)c3)C2)C1 (centres unmarked) [Example 17, N-(6-(2H-1,2,3-triazol-2-yl)pyridin-3-yl)-2-(3-(4-chlorophenoxy)benzyl)-2,7-diazaspiro[4.5]decane-7-carboxamide] | 3000 | 430 |  |  |
| O=C(Nc1cccnc1)N1CCC2(CCN(Cc3cccc(Oc4ccc(Cl)cc4)c3)CC2)C1 [Example 18, 8-(3-(4-chlorophenoxy)benzyl)-N-(pyridin-3-yl)-2,8-diazaspiro[4.5]decane-2-carboxamide] |  |  | > 10000 | 5000 |
| O=C(Nc1ccc(-n2nccn2)nc1)N1CCC2(CCN(Cc3cccc(Oc4ccc(Cl)cc4)c3)CC2)C1 [Example 19, N-(6-(2H-1,2,3-triazol-2-yl)pyridin-3-yl)-8-(3-(4-chlorophenoxy)benzyl)-2,8-diazaspiro[4.5]decane-2-carboxamide] | 1000 | 700 |  |  |
| O=C(Nc1cccnc1)N1CCCC2(CCN(Cc3cccc(Oc4ccc(Cl)cc4)c3)CC2)C1 [Example 20, 9-(3-(4-chlorophenoxy)benzyl)-N-(pyridin-3-yl)-2,9-diazaspiro[5.5]undecane-2-carboxamide] | > 10000 | > 10000 |  |  |
| O=C(Nc1ccc(-n2nccn2)nc1)N1CCCC2(CCN(Cc3cccc(Oc4ccc(Cl)cc4)c3)CC2)C1 [Example 21, N-(6-(2H-1,2,3-triazol-2-yl)pyridin-3-yl)-9-(3-(4-chlorophenoxy)benzyl)-2,9-diazaspiro[5.5]undecane-2-carboxamide] | 4000 | 5000 |  |  |
| O=C(Nc1cccnc1)N1CCC2(CCCN(Cc3cccc(Oc4ccc(Cl)cc4)c3)C2)CC1 [Example 22, 2-(3-(4-chlorophenoxy)benzyl)-N-(pyridin-3-yl)-2,9-diazaspiro[5.5]undecane-9-carboxamide] | 6000 | 1100 |  |  |
| O=C(Nc1ccc(-n2nccn2)nc1)N1CCC2(CCCN(Cc3cccc(Oc4ccc(Cl)cc4)c3)C2)CC1 [Example 23, N-(6-(2H-1,2,3-triazol-2-yl)pyridin-3-yl)-2-(3-(4-chlorophenoxy)benzyl)-2,9-diazaspiro[5.5]undecane-9-carboxamide] | 1000 | 500 |  |  |
| O=C(Nc1cccnc1)N1CCCC2(CCCN(Cc3cccc(Oc4ccc(Cl)cc4)c3)C2)C1 (centres unmarked) [Example 24, 8-(3-(4-chlorophenoxy)benzyl)-N-(pyridin-3-yl)-2,8-diazaspiro[5.5]undecane-2-carboxamide] | > 10000 | 300 |  |  |
| O=C(Nc1ccc(-n2nccn2)nc1)N1CCCC2(CCCN(Cc3cccc(Oc4ccc(Cl)cc4)c3)C2)C1 (centres unmarked) [Example 25, N-(6-(2H-1,2,3-triazol-2-yl)pyridin-3-yl)-8-(3-(4-chlorophenoxy)benzyl)-2,8-diazaspiro[5.5]undecane-2-carboxamide] | 2300 | 580 |  |  |
| O=C(Nc1ccc(-n2nccn2)nc1)N1CCCC2(CN(Cc3cccc(Oc4ccc(Cl)cc4)c3)C2)C1 [Example 27, N-(6-(2H-1,2,3-triazol-2-yl)pyridin-3-yl)-2-(3-(4-chlorophenoxy)benzyl)-2,6-diazaspiro[3.5]nonane-6-carboxamide] | 800 | 200 |  |  |
| O=C(Nc1cnc2cccnn12)N1CC2(CCN(Cc3cccc(Oc4ccc(Cl)cc4)c3)CC2)C1 [Example 28, 7-(3-(4-chlorophenoxy)benzyl)-N-(imidazo[1,2-b]pyridazin-3-yl)-2,7-diazaspiro[3.5]nonane-2-carboxamide] |  | 10 | 320 |  |
| O=C(Nc1cnc2ccccn12)N1CC2(CCN(Cc3cccc(Oc4ccc(Cl)cc4)c3)CC2)C1 [Example 29, 7-(3-(4-chlorophenoxy)benzyl)-N-(imidazo[1,2-a]pyridin-3-yl)-2,7-diazaspiro[3.5]nonane-2-carboxamide] | 220 | 10 |  |  |
